Values joined by “and” are separate entries in the source; they are usually repeats but may differ in a detail not shown here. Identical values can stand only once. Counter-ions that a name gives are not always drawn.
B1: LEF1 IRES: human LEF1 5'UTR (1.178 kb) internal ribosome entry site, SEQ ID NO:1, in dicistronic vector pRSTF-LEF(1.2) (nucleic acid, listed as Homo sapiens)
DNA: TCAGCGCCGGCGAGGCGCGGGAGGAGGAGAAGCAGTGGGGAGGCGCAGCCGCTCACCTGCGGGGCAGGGCGCGGAGGAGGGACCCGGGCTGCGCGCTCTCGGGCCGAGGAACCAGGACGCGCCCGGAGCCTCGCACGCGGCCAAGCTCGGGGCGTCCCCTCCCCTCGGCCGGGCGAACTCAAGGGGCGCAGCTCTTTGCTTTGACAGAGCTGGCCGGCGGAGGCGTGCAGAGCGGCGAGCCGGCGAGCCAGGCTGAGAAACTCGAGCCGGGAACAAAGAGGGGTCGGACTGAGTGTGTGTGTCGGCTCGAGCTCCGGGCAGAGGCATTTGGGCCCGAGGCCCCCGCTGTGACTCCCCGAGACTCCGCAGTGCCCTCCACTGCGGAGTCCCCGCGCTTGCCGGCAAAAACTTTATTCTTGGCAAACTTCTCTTTCTCTTCCCCTCCTCCTCGGCCCCCATCTTCTGCTCCTCCTCCTTCTCTAGCAGATTAAATGAGCCTCGAGAAGAAAAACCGAAGCGAAAGGGAAGAAAATAAGAAGATCTAAAACGGACATCTCCAGCGTGGGTGGCTCCTTTTTCTTTTTCTTTTTTTCCCACCCTTCAGGAAGTGGACGTTTCGTTATCTTCTGATCCTTGCACCTTCTTTTGGGGCAAACGGGGCCCTTCTGCCCAGATCCCCTCTCTTTTCTCGGAAAACAAACTACTAAGTCGGCATCCGGGGTAACTACAGTGGAGAGGGTTTCCGCGGAGACGCGCCGCCGGACCCTCCTCTGCACTTTGGGGAGGCGTGCTCCCTCCAGAACCGGCGTTCTCCGCGCGCAAATCCCGGCGACGCGGGGTCGCGGGGTGGCCGCCGGGGCAGCCTCGTCTAGCGCGCGCCGCGCAGACGCCCCCGGAGTCGCCAGCTACCGCAGCCCTCGCCGCCCAGTGCCCTTCGGCCTCGGGGGCGGGCGCCTGCGTCGGTCTCCGCGAAGCGGGAAAGCGCGGCGGCCGCCGGGATTCGGGCGCCGCGGCAGCTGCTCCGGCTGCCGGCCGGCGGCCCCGCGCTCGCCCGCCCCGCTTCCGCCCGCTGTCCTGCTGCACGAACCCTTCCAACTCTCCTTTCCTCCCCCACCCTTGAGTTACCCCTCTGTCTTTCCTGCTGTTGCGCGGGTGCTCCCACAGCGGAGCGGAGATTACAGAGCCGCCGGGATGCCCCAACTCTCCGGAGGAGGTGGCGGCGGCGGGGGGGACCCGGAACTCTGCGCCACGGACGAGATGA
modifications: (298)..(1095) IRES Sequence; (298)..(656) IRES Module 1; (656)..(1095) IRES Module 2

Key:
LEF1 mRNA = experiment: Northern blot of LEF1 mRNA in K562 cells; type: cell-based; conditions: 2 μM imatinib, 24 hours; for decrease of LEF1 mRNA levels (3.6 kb and 3.0 kb mRNAs): rapamycin 10 ng/mL or both, not normalized
Protocol: Total RNA was isolated from K562 cells using TriZol reagent (Invitrogen) according to the manufacturer's instructions. […] Approximately 20 μg of total RNA from K562 cells was analyzed on a Northern blot for LEF1 expression, respectively. Northern blotting was carried out as described elsewhere and the LEF1 ORF (open reading frame) probe was generated as described elsewhere and radiolabeled with ^32P-dATP. The blot was stripped and rehybridized with a ^32P-dATP radioloabeled GAPDH loading control probe.
Panel B: Northern blot analysis of total RNA isolated from K562 cells treated with inhibitors as described above. The three LEF1 mRNAs are indicated by arrows. A radiolabeled LEF-1 ORF cDNA probe was used to detect LEF1 mRNAs in the top panel. The blot was stripped and reprobed with GAPDH.

[1] = tested on: LEF-1 protein expression in K562 cells; experiment: LEF-1 protein expression in K562 cells, Western blot; type: cell-based; conditions: imatinib 2 uM, rapamycin 10 ng/mL or both, 24 hours
[2] = tested on: cap-dependent translation (RLuc); experiment: Dicistronic DNA transfection, RLuc cap-dependent translation, Ba/F3-Bcr-Abl-WT cells; type: cell-based, murine; conditions: inhibitors for 6 hours
Protocol: (§1) For transfection of the dicistronic plasmids into Ba/F3 cells, approximately 10×10^6 cells were seeded in […] and 10 μg of the reporter plasmid was transfected via a BTX 600 electroporator. […] Cell lysates were prepared for dual luciferase assays 8 hours post-transfection. […] Cell lysates were prepared for dual luciferase assays 24 hours post-transfection. Transfections were performed in duplicate and each experiment was carried out at least 3 times.
(§2) Cell lysates were assayed for luciferase activities using the Dual Luciferase Reporter Assay System (Promega) according to the manufacturer's protocol. Assays were performed using a SIRIUS luminometer (Berthold Detection Systems). FLuc:RLuc ratios were calculated for each sample, and the average value is represented as fold elevation over background, which is the Firefly luciferase: Renilla luciferase ratio (FLuc:RLuc) measured from the vector in the absence of an insert.
(§3) The dicistronic vector depicted in FIG. 4A contains 2 cistrons separated by an intercistronic region that also contains a hairpin structure. […] A dicistronic construct that contains the full length 1.2 kb LEF1 5′UTR and IRES, the empty vector with no insert (pRSTF), and the viral IRES of the well characterized coxsackievirus B3 (CVB3) were analyzed for comparison. […]

[3] = tested on: LEF-1 protein expression in primary CML cells; experiment: LEF-1 protein expression in primary CML cells, Western blot; type: cell-based, human; conditions: rapamycin 10 ng/mL, 24 hours
Protocol: PB mononuclear cells (MNCs) were obtained by centrifugation through Ficoll-Hypaque, washed in PBS, and cryopreserved. To expand CML cells in vitro, cells were thawed and grown in media supplemented with 10% FBS and a growth factor cocktail consisting of 20 ng/ml granulocyte-macrophage colony stimulating factor, 20 ng/ml recombinant human interleukin 3, 20 ng/ml recombinant human stem cell factor, and 100 ng/ml granulocyte colony-stimulating factor. Following this, cells were incubated in liquid culture for 72-96 hrs, at 37° C. in a humidified atmosphere with 5% CO2 in serum-free medium (SFM) (StemCell Technologies, Vancouver, BC, Canada) supplemented with growth factors (GF) at concentrations similar to that found in stroma-conditioned medium. All cytokines were from PeproTech, Rocky Hills, N.J., except for GM-CSF (sargramostim, Immunex, Seattle, Wash.) and G-CSF (filgrastim, Amgen, Thousand Oaks, Calif.).

LEF1 IRES = experiment: Dicistronic DNA transfection dual luciferase assay, LEF1 IRES, Ba/F3-Bcr-Abl-WT cells; type: cell-based, murine
Protocol: as §1
as §2, with “insert. […]” for “insert.”
as §3

CVB3 IRES [4] = experiment: Dicistronic DNA transfection dual luciferase assay, CVB3 IRES, Ba/F3-Bcr-Abl-WT cells; type: cell-based, murine; conditions: 10 ng/mL rapamycin, 6 hours
Protocol: as §1
as §2, with “insert. […]” for “insert.”
as §3

LEF-1 IRES [5] = experiment: Capped dicistronic RNA transfection, LEF-1 IRES firefly luciferase, K562 cells; type: cell-based; conditions: 2 μM imatinib, 24 hours, p<0.001
Protocol: (§4) The capped dicistronic mRNAs were generated by in vitro transcription of the dicistronic (linearized with PMEI) plasmid using the T7-based Megascript in vitro transcription kit (Ambion) as per the manufacturer's protocol. The integrity of the transcripts was analyzed on a 1% agarose gel.
(§5) Approximately 6×10^5 cells (K562) were seeded in 6-well plates and 2 μg of in vitro synthesized dicistronic mRNA was transfected per well using the Transmessenger transfection kit (Qiagen). A ratio of 1:6 (1 μg of RNA: 6 μL of transmessenger reagent) was used according to the manufacturer's instructions. […] Cell lysates were then assayed for luciferase activities as described above. All transfections were performed in duplicate and carried out 3 times.
(§6) To determine whether Bcr-Abl regulation is compartmentalized and further examine whether it functions post-transcriptionally, an RNA transient transfection was carried out in K562 cells. […] In these experiments the inventors again utilized CVB3 as a control for regulation in subcellular compartments since it predominantly depends on cytoplasmic machinery for translation.

[6] = tested on: cap-dependent translation (RLuc); experiment: Dicistronic DNA transfection, RLuc cap-dependent translation, K562 cells; type: cell-based; conditions: 2 μM imatinib
[7] = tested on: cap-dependent translation (RLuc); experiment: Capped dicistronic RNA transfection, RLuc cap-dependent translation, K562 cells; type: cell-based; conditions: 2 μM imatinib, 24 hours
Protocol: as §4, §5, §6

GAPDH mRNA = experiment: Northern blot of GAPDH mRNA (loading control) in K562 cells; type: cell-based; conditions: 2 μM imatinib, 24 hours
LEF-1 IRES [8] = experiment: Dicistronic DNA transfection dual luciferase assay, LEF-1 IRES, K562 cells; type: cell-based; conditions: 2 μM imatinib, 24 hour treatment
CVB3 IRES [9] = experiment: Capped dicistronic RNA transfection, CVB3 IRES firefly luciferase, K562 cells; type: cell-based; conditions: 2 μM imatinib, 24 hours
Protocol: as §4, §5, §6

Molecule | decrease of LEF1 mRNA levels (3.6 kb and 3.0 kb mRNAs) (LEF1 mRNA) [fold] | LEF-1 protein levels [1] | decrease in RLuc activity (cap-dependent translation), average [2] [fold] | LEF-1 protein levels [3] | decrease in LEF-1 IRES activity (FLuc:RLuc) (LEF1 IRES; 10 ng/mL rapamycin, 6 hours) [%] | decrease in CVB3 IRES activity (FLuc:RLuc) (CVB3 IRES [4]) [%] | reduction of LEF-1 IRES activity in the cytoplasm (LEF-1 IRES [5]) [%] | reduction of RLuc translation, average [6] [fold] | decrease of LEF1 mRNA after normalizing with GAPDH mRNA levels (LEF1 mRNA) [fold] | inhibition of RLuc translation, average [7] [fold] | reduction of GAPDH mRNA levels (GAPDH mRNA) [fold] | decrease in LEF-1 IRES activity (LEF-1 IRES [8]) [fold] | decrease in LEF-1 IRES activity (LEF-1 IRES [8]; listed as Imatinib) | effect on CVB3 IRES activity (CVB3 IRES [9]) | elevation in the FLuc:RLuc ratio over empty vector (LEF1 IRES; 8 hours post-transfection, no inhibitor) [fold]
CO[C@H]1C[C@@H]2CC[C@@H](C)[C@@](O)(O2)C(=O)C(=O)N2CCCC[C@H]2C(=O)O[C@H]([C@H](C)C[C@@H]2CC[C@@H](O)[C@H](OC)C2)CC(=O)[C@H](C)/C=C(\C)[C@@H](O)[C@@H](OC)C(=O)[C@H](C)C[C@H](C)/C=C/C=C/C=C/1C [rapamycin] | ~2 | no effect | 2 | no effect | 38 | 33 |  |  |  |  |  |  |  |  | 
Cc1ccc(NC(=O)c2ccc(CN3CCN(C)CC3)cc2)cc1Nc1nccc(-c2cccnc2)n1 [imatinib, imatinib mesylate] | 3 | significantly down-regulated |  |  |  |  | 45 | 2.6 | 2 | 3.4 | 1.4 | 2.3 | 3-4 fold and 3 fold | insensitive | 
B1 |  |  |  |  |  |  |  |  |  |  |  |  |  |  | 55
